The results in this text go back to patent US6046186A, “Estrone sulfamate inhibitors of estrone sulfatase, and associated pharmaceutical compositions and methods of use” (SRI International, priority 1997, dated 2000).

The test system of one assay is uterus. The assay is described as follows: Uterotrophic assay (estrogenic activity from uterine weights). It counts as in vivo, Sprague Dawley rats. Set-up: scale not given here. Conditions: female rats, test compound alone once daily for 7 days, s.c. or oral gavage; uterine weight vs vehicle control. The source says: B. Uterotrophic and antiuterotrophic assays
Sprague Dawley rates are obtained from Simmonsen Laboratories, Gilroy, Calif. Estradiol benzoate may be purchased from Sigma Chemical Co., St. Louis, Mo.
The procedure of Wakeling et al., Endocrinology 99:447453 (1983) is followed. Female Sprague Dawley rats weighing 40-50 grams are used for the experiment. In general, animals are quarantined for 3 days after arrival at the experimental site.
Rats are initially weighed and randomly divided into groups with 5 animals in each group. For the uterotrophic assay, animals are dosed once daily with various doses of test compounds in 0.1 or 1.0 ml of sterile saline via subcutaneous injection or oral gavage, respectively. For the antiuterotrophic assay, animals are dosed once daily with the same doses indicated above plus 0.5 μg/rat of estradiol benzoate alone.
The animals are treated for 7 days. On day 8, animals are weighed and then sacrificed. The uterus of each animal is removed immediately after death and weighed; fat materials are trimmed off prior to weighing.
A comparison of uterine weights from the groups receiving test compound alone with those of the vehicle control group gives the estrogenic activity. Antiestrogenic activity is obtained by comparing the uterine weights from the groups receiving test compound plus estradiol with those of the estradiol control group.

For another assay, the target named is T1, Estrone Sulfatase (Homo sapiens, UniProt P08842).
T1 construct: endogenous in cells; host or cells: MCF-7 human breast cancer cells (American Type Culture Collection)
T1 sequence (P08842 22-583): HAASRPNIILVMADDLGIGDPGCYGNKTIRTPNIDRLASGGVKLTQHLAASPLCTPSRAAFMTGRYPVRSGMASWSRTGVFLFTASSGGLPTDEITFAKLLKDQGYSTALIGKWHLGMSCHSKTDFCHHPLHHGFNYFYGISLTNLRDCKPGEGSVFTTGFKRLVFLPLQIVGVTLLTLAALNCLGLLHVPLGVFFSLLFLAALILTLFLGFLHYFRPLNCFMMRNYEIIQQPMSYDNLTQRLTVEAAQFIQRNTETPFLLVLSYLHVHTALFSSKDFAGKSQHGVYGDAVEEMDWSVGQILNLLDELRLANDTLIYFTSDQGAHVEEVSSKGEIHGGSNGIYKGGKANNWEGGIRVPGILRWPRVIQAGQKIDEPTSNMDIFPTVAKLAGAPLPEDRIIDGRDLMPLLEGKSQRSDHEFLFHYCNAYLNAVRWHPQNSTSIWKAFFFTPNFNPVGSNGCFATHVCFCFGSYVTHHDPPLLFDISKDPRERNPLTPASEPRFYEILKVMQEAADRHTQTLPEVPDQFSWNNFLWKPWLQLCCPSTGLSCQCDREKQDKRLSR
The assay is described as follows: Effects of Inhibitors on Estrone Sulfatase Activity in MCF-7 Cells. It counts as cell-based. The source says: A. Effects of Inhibitors on Estrone Sulfatase Activity in MCF-7 Cells
Reagents: MCF-7 human breast cancer cell line was supplied by the American Type Culture Collection, Rockville, MD. Eagle's minimum essential medium (MEM) and fetal calf serum (FCS) were purchased from Sigma Chemical Company, St. Louis, Mo. [4-^14 C]Estrone, [6,7-^3 H]estradiol and [6,7-^3 H](N)estrone sulfate were obtained from New England Nuclear Research Products, Boston, Mass.
Procedure: The method of Duncan et al., Cancer Res. 53:298-303 (1993) was employed. MCF-7 cells were seeded in 60 mm×15 mm culture dishes at 1×10^5 cells/dish and maintained in 4.0 ml of MEM containing 2 mM glutamine and 5% FCS. The cells were incubated at 37° C. in an atmosphere of 5% CO2 /95% air and 100% humidity, with the medium changed every third day. When the cells reached 80% confluency, the intact monolayers were washed once with Earl's balanced salt solution and incubated in 4.0 ml of serum and phenol re-free MEM containing either the substrate (^3 H-estrone sulfate, 7 pmol, 9×10^5 dpm) and inhibitor dissolved in ethanol, or ethanol alone. The fmal ethanol concentration was always below 1%. The incubation continued under the regular conditions for 24 h. At the end of 24 h, 2.0 ml of medium was transferred into separate tubes containing 7×10^3 dpm of ^14 C-estrone. The mixture was vortexed vigorously for 60 s with 5 ml of toluene. After phase separation, 2.0 ml of the organic phase was transferred into a counting vial for scintillation counting. The amount of estrone sulfate hydrolyzed was calculated on the basis of ^3 H counts obtained, with the added ^14 C-estrone counts used to correct for recovery through the extraction procedure.
The cells remaining in each culture dish were washed once with saline and then scraped with 1.0 ml of 0.5 N NaOH into 10×75 mm tubes. The cell pellets in each tube was incubated at 50° C. for 20 min to ensure that digestion was complete and all proteins had became soluble. An aliquot was then taken for protein determination by Lowry's method (Lowry et al., J. Biol. Chem. 193:265-275 (1951)).
The percentage of inhibition was determined by evaluating the quantity of estrone sulfate hydrolyzed with the inhibitor relative to that without the inhibitor.
As a general practice, all available inhibitors were first tested at 100 μM; the ones showing inhibitory effects at that concentration were tested again at various concentrations to obtain the IC50 values.

[1] abbreviates: intact MCF-7 human breast cancer cells, 3H-estrone sulfate substrate, 24 h, 37° C., read-out: Estrone Sulfatase Inhibitory Activity IC50.

The structures appear in SMILES notation. Read-outs that look alike come from different tables or passages of the source.

As a reminder, the IC50 is the concentration needed to halve the response being measured. For `C#CC1=CC[C@H]2[C@@H]3CCc4cc(OS(N)(=O)=O)ccc4[C@H]3CC[C@]12C` [Compound 5, 19-Norpregna-1,3,5(10),16-tetraen-20-yne-3-O-sulfamate], the “Estrogenic Activity” value in the assay with uterus turned out to be 0.40. Besides, on Estrone Sulfatase (setting [1]), the IC50 stood at 0.25 nM.

Take `CC(=O)O[C@H]1CC[C@H]2[C@@H]3CCc4cc(OS(N)(=O)=O)c(C#N)cc4[C@H]3CC[C@]12C` [Compound 59, 2-Cyanoestra-1,3,5(10)-trien-17β-ol-3-O-sulfamate 17β-O-acetate]: the “Estrogenic Activity” value with uterus is 0. Besides, on Estrone Sulfatase (setting [1]), the IC50 worked out at 0.3 nM.

With `CC12CC(=O)C3=Cc4ccc(OS(N)(=O)=O)cc4CCC3C1CCC2=O` (stereo not drawn) [Compound 99, β-Homo-9-(10-19)-abeoestra-1,3,5(10),9(19)-tetraen-11,17-dione-3-O-sulfamate], the “Estrogenic Activity” value in the assay with uterus came to 0. Further, at Estrone Sulfatase (setting [1]), the IC50 was 26 nM.

`CN(C)CCO[C@@H]1CC[C@H]2[C@@H]3CCc4cc(OS(N)(=O)=O)ccc4[C@H]3CC[C@]12C` [Compound 55, 17α-(2'-N,N-Dimethylaminoethoxy)estra-1,3,5(10)-triene-3-O-sulfamate]: the “Estrogenic Activity” value with uterus was determined as 0. Further, on Estrone Sulfatase (setting [1]), the IC50 amounted to 26 nM.

For `C/C=C1/CC[C@H]2[C@@H]3CCc4cc(OS(N)(=O)=O)c(OC)cc4[C@H]3CC[C@]12C` [Compound 69, 2-Methoxy-[17(20)Z]-19-norpregna-1,3,5(10),17(20)-tetraene-3-O-sulfamate], in the assay on uterus, the “Estrogenic Activity” value is recorded as 0. Moreover, the IC50 at Estrone Sulfatase (setting [1]) is 2.5 nM.

As to `CC(C)(C)[Si](C)(C)O[C@@H]1CC[C@H]2[C@@H]3CCc4cc(OS(N)(=O)=O)ccc4[C@H]3CC[C@]12C` [Compound 52, 17α-tert-Butyldimethylsilyloxyestra-1,3,5(10)-triene-3-O-sulfamate], the “Estrogenic Activity” value in the assay with uterus is 0. On Estrone Sulfatase, this molecule showed an IC50 of 0.31 nM.

Regarding `CN(C)CCO[C@H]1CC[C@H]2[C@@H]3CCc4cc(OS(N)(=O)=O)ccc4[C@H]3CC[C@]12C` [Compound 44, 17β-(2'-N,N-Dimethylaminoethoxy)estra-1,3,5(10)-triene-3-O-sulfamate], in the assay on uterus, the “Estrogenic Activity” value amounted to 0. The IC50 on Estrone Sulfatase (setting [1]) was 24 nM.

For `CC[C@H]1CC[C@H]2[C@@H]3CCc4cc(OS(N)(=O)=O)c(OC)cc4[C@H]3CC[C@]12C` [Compound 71, 2-Methoxy-19-norpregna-1,3,5(10)-triene-3-O-sulfamate], in the assay on uterus, the “Estrogenic Activity” value amounted to 0. The half-inhibitory concentration (IC50) on Estrone Sulfatase (setting [1]) worked out at 1.5 nM.

As to `CN(C)c1c(OS(N)(=O)=O)ccc2c1CC[C@@H]1[C@@H]2CC[C@]2(C)C(=O)CC[C@@H]12` [Compound 88, 4-Dimethylaminoestra-1,3,5(10)-trien-17-one-3-O-sulfamate], the “Estrogenic Activity” value in the assay with uterus was determined as 0. Further, the half-inhibitory concentration (IC50) at Estrone Sulfatase (setting [1]) was determined as 515 nM.
